Experimental data taken from patent US8541418B2, “Inhibitors of polo-like kinase” (Elan Pharmaceutical, Inc., priority 2009, dated 2013).
Where two headings read alike, the source gives them in different places.

Assays:
Assay type in all cases: biochemical
[1] = biological target: PLK1 (Homo sapiens, UniProt P53350); assay: PLK TR-FRET peptide assay, PLK1; conditions: GST-PLK1, 60 min reaction
[2] = biological target: PLK3 (Homo sapiens, UniProt Q9H4B4); assay: PLK TR-FRET peptide assay, PLK3; conditions: GST-PLK3, 15 min reaction, read-out: Plk3 IC50
[3] = biological target: PLK2 (Homo sapiens, UniProt Q9NYY3); assay: PLK TR-FRET peptide assay, PLK2; conditions: for IC50: read-out: Plk2 IC50; for relative PLK2 activity of the enantiomers: compared with the opposite enantiomer
[4] = PLK TR-FRET peptide assay, GST-PLK2, 60 min reaction

Chain of PLK2 (Q9NYY3 whole entry): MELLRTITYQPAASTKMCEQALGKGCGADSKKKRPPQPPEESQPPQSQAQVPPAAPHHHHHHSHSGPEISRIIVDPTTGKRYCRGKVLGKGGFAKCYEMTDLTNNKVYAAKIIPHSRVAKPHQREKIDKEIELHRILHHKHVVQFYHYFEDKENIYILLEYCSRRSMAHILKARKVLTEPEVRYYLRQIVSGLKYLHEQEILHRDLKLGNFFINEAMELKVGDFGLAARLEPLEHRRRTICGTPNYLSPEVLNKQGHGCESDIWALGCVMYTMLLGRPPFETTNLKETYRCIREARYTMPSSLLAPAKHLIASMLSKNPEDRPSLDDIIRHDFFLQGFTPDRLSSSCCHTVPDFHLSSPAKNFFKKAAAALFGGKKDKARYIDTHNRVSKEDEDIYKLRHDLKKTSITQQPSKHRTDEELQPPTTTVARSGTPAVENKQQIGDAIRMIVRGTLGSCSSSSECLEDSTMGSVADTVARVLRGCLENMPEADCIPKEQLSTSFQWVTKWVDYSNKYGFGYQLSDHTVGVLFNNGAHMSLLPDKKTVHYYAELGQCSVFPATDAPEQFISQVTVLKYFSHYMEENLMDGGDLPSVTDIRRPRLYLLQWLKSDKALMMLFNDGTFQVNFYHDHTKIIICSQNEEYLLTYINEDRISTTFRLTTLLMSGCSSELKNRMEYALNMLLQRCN
Chain of PLK3 (Q9H4B4 whole entry): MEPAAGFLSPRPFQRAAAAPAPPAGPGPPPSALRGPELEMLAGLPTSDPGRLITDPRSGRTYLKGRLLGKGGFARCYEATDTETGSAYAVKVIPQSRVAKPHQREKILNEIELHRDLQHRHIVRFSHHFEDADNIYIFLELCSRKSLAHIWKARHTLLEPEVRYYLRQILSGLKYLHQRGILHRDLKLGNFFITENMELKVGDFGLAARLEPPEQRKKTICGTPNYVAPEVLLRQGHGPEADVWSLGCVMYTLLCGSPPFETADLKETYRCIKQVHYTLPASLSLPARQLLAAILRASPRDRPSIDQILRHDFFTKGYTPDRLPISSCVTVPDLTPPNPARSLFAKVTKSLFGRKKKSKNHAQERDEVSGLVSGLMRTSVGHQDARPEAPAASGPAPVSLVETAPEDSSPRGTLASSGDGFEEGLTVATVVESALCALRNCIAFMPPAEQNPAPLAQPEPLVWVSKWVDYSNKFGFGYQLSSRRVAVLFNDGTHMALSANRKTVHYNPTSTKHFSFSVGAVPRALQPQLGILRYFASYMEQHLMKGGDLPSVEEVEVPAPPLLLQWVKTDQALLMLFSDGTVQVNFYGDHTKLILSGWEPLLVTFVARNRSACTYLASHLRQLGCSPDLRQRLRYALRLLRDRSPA
Chain of PLK1 (P53350 whole entry): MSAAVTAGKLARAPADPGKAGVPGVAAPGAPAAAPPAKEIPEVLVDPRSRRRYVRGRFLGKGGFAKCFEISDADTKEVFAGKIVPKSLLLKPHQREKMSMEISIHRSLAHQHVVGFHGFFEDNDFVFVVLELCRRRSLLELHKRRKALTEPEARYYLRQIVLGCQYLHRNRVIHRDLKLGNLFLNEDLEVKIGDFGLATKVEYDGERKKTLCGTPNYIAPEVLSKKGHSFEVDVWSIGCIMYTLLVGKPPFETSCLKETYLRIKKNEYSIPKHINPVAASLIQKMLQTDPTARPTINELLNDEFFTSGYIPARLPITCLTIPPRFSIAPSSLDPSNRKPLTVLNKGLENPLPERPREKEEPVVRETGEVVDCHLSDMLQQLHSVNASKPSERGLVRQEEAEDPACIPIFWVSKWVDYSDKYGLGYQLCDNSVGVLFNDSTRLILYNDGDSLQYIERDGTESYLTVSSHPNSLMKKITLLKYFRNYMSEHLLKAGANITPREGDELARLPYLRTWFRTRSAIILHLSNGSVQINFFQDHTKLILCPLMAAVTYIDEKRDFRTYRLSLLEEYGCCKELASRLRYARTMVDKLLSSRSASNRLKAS

| Structure (SMILES) | IC50 [1] [µM] | IC50 [2] [µM] | IC50 [3, 4] [µM] | relative PLK2 activity of the enantiomers [3] | IC50 [3] [µM] |
| --- | --- | --- | --- | --- | --- |
| CC[C@@]12CCCCN1c1nc(-n3ccnc3-c3ccc(F)cc3F)ncc1N(C)C2=O [Example 269, (S)-2-(2-(2,4-difluorophenyl)-1H-imidazol-1-yl)-6a-ethyl-5-methyl-7,8,9,10-tetrahydro-5H-pyrido[2,1-h]pteridin-6(6aH)-one] | 10 to 50 | 10 to 50 | < 1 | more active compound | – |
| CC[C@]12CCCCN1c1nc(-n3ccnc3-c3ccc(F)cc3F)ncc1N(C)C2=O [Example 270, (R)-2-(2-(2,4-difluorophenyl)-1H-imidazol-1-yl)-6a-ethyl-5-methyl-7,8,9,10-tetrahydro-5H-pyrido[2,1-h]pteridin-6(6aH)-one] | > 50 | > 50 | 10 to 50 | – | – |
| CC[C@@H]1C(=O)N(C)c2cnc(-n3ccnc3-c3ccc(F)cn3)nc2N1C1CCCC1 [Example 271, (R)-8-cyclopentyl-7-ethyl-2-(2-(5-fluoropyridin-2-yl)-1H-imidazol-1-yl)-5-methyl-7,8-dihydropteridin-6(5H)-one] | < 1 | 1 to 10 | < 1 | – | – |
| CC[C@@]12CCCN1c1nc(-n3ccnc3-c3cccc(-c4cccnc4)c3)ncc1N(C)C2=O [Example 272, (S)-6a-ethyl-5-methyl-2-(2-(3-(pyridin-3-yl)phenyl)-1H-imidazol-1-yl)-6a,7,8,9-tetrahydropyrrolo[2,1-h]pteridin-6(5H)-one] | 10 to 50 | 10 to 50 | < 1 | – | – |
| CC[C@@]12CCCN1c1nc(-n3ccnc3-c3cccc(-n4cncn4)c3)ncc1N(C)C2=O [Example 273, (S)-2-(2-(3-(1H-1,2,4-triazol-1-yl)phenyl)-1H-imidazol-1-yl)-6a-ethyl-5-methyl-6a,7,8,9-tetrahydropyrrolo[2,1-h]pteridin-6(5H)-one] | 10 to 50 | > 50 | – | – | < 1 |
| CC[C@@]12CCCN1c1nc(-n3ccnc3-c3cccc(-n4cccn4)c3)ncc1N(C)C2=O [Example 276, (S)-2-(2-(3-(1H-pyrazol-1-yl)phenyl)-1H-imidazol-1-yl)-6a-ethyl-5-methyl-6a,7,8,9-tetrahydropyrrolo[2,1-h]pteridin-6(5H)-one] | 10 to 50 | > 50 | < 1 | – | – |
| CC[C@@H]1C(=O)N(C)c2cnc(-n3ccnc3-c3ccc(F)cc3F)nc2N1CCC(F)(F)F [Example 277, (R)-2-(2-(2,4-difluorophenyl)-1H-imidazol-1-yl)-7-ethyl-5-methyl-8-(3,3,3-trifluoropropyl)-7,8-dihydropteridin-6(5H)-one] | 1 to 10 | 1 to 10 | < 1 | – | – |
| CC[C@@]12CCCN1c1nc(N3CCN=C3c3ccccc3)ncc1N(C)C2=O [Example 281, (S)-6a-ethyl-5-methyl-2-(2-phenyl-4,5-dihydro-1H-imidazol-1-yl)-6a,7,8,9-tetrahydropyrrolo[2,1-h]pteridin-6(5H)-one] | > 50 | 10 to 50 | < 1 | – | – |
| CC[C@@H]1C(=O)N(C)c2cnc(-n3ccnc3-c3ccc(F)cc3Cl)nc2N1CCC(F)(F)F [Example 282, (R)-2-(2-(2-chloro-4-fluorophenyl)-1H-imidazol-1-yl)-7-ethyl-5-methyl-8-(3,3,3-trifluoropropyl)-7,8-dihydropteridin-6(5H)-one] | 10 to 50 | 10 to 50 | < 1 | – | – |
| CCC1C(=O)N(C)c2cnc(-n3cc[n+](C)c3-c3ccccc3)nc2N1NC (stereo not shown) [Example 284, 1-(7-ethyl-5-methyl-8-(methylamino)-6-oxo-5,6,7,8-tetrahydropteridin-2-yl)-3-methyl-2-phenyl-1H-imidazol-3-ium] | > 50 | > 50 | > 50 | – | – |
| CC[C@@]12CCCN1c1nc(-n3ccnc3)ncc1N(C)C2=O [Example 285, (S)-6a-ethyl-2-(1H-imidazol-1-yl)-5-methyl-6a,7,8,9-tetrahydropyrrolo[2,1-h]pteridin-6(5H)-one] | > 50 | > 50 | 10 to 50 | – | – |
| CC[C@@]12CCCCN1c1nc(-n3ccnc3)ncc1N(C)C2=O [Example 286, (S)-6a-ethyl-2-(1H-imidazol-1-yl)-5-methyl-7,8,9,10-tetrahydro-5H-pyrido[2,1-h]pteridin-6(6aH)-one] | > 50 | > 50 | 1 to 10 | more active compound | – |
| CC[C@]12CCCCN1c1nc(-n3ccnc3)ncc1N(C)C2=O [Example 287, (R)-6a-ethyl-2-(1H-imidazol-1-yl)-5-methyl-7,8,9,10-tetrahydro-5H-pyrido[2,1-h]pteridin-6(6aH)-one] | > 50 | > 50 | > 50 | – | – |
| CC[C@@H]1C(=O)N(C)c2cnc(-n3ccnc3C3CC3)nc2N1C1CCCC1 [Example 288, (R)-8-cyclopentyl-2-(2-cyclopropyl-1H-imidazol-1-yl)-7-ethyl-5-methyl-7,8-dihydropteridin-6(5H)-one] | 1 to 10 | 1 to 10 | < 1 | – | – |
| CC(C)N1c2nc(-n3ccnc3-c3ccccc3)ncc2N(C)C(=O)C12CCC2 [Example 289, 8′-isopropyl-5′-methyl-2′-(2-phenyl-1H-imidazol-1-yl)-5′H-Spiro[cyclobutane-1,7′-pteridin]-6′(8′H)-one] | 1 to 10 | 10 to 50 | < 1 | – | – |
| CC[C@@H]1C(=O)N(C)c2cnc(-n3ccnc3Cl)nc2N1C1CCCC1 [Example 292, (R)-2-(2-chloro-1H-imidazol-1-yl)-8-cyclopentyl-7-ethyl-5-methyl-7,8-dihydropteridin-6(5H)-one] | 1 to 10 | 10 to 50 | < 1 | – | – |
| CN1C(=O)[C@@H](CC(F)(F)F)N(CCC(F)(F)F)c2nc(-n3ccnc3-c3ccc(F)cc3F)ncc21 [Example 293, (R)-2-(2-(2,4-difluorophenyl)-1H-imidazol-1-yl)-5-methyl-7-(2,2,2-trifluoroethyl)-8-(3,3,3-trifluoropropyl)-7,8-dihydropteridin-6(5H)-one] | 1 to 10 | 10 to 50 | < 1 | more active compound | – |
| CN1C(=O)[C@H](CC(F)(F)F)N(CCC(F)(F)F)c2nc(-n3ccnc3-c3ccc(F)cc3F)ncc21 [Example 294, (S)-2-(2-(2,4-difluorophenyl)-1H-imidazol-1-yl)-5-methyl-7-(2,2,2-trifluoroethyl)-8-(3,3,3-trifluoropropyl)-7,8-dihydropteridin-6(5H)-one] | > 50 | > 50 | 10 to 50 | – | – |
| CC[C@@H]1C(=O)N(C)c2cnc(-n3ccnc3)nc2N1C1CCOCC1 [Example 295, (R)-7-ethyl-2-(1H-imidazol-1-yl)-5-methyl-8-(tetrahydro-2H-pyran-4-yl)-7,8-dihydropteridin-6(5H)-one] | 1 to 10 | 10 to 50 | 1 to 10 | – | – |
| CC[C@@H]1C(=O)N(C)c2cnc(N3CCN=C3C3CC3)nc2N1C(C)C [Example 297, (R)-2-(2-cyclopropyl-4,5-dihydro-1H-imidazol-1-yl)-7-ethyl-8-isopropyl-5-methyl-7,8-dihydropteridin-6(5H)-one] | 10 to 50 | 10 to 50 | 10 to 50 | – | – |
| CC(C)N1c2nc(-n3ccnc3-c3ccc(F)cc3)ncc2N(C)C(=O)C1(C)C [Example 298, 2-(2-(4-fluorophenyl)-1H-imidazol-1-yl)-8-isopropyl-5,7,7-trimethyl-7,8-dihydropteridin-6(5H)-one] | > 50 | > 50 | 1 to 10 | – | – |
| CCC1C(=O)N(C)c2cnc(-n3ccnc3)nc2N1c1ccccc1 (stereo not shown) [Example 300, 7-ethyl-2-(1H-imidazol-1-yl)-5-methyl-8-phenyl-7,8-dihydropteridin-6(5H)-one] | 1 to 10 | > 50 | 1 to 10 | – | – |
| CN1C(=O)[C@@H](CC(F)(F)F)N(CCC(F)(F)F)c2nc(-n3ccnc3)ncc21 [Example 301, (R)-2-(1H-imidazol-1-yl)-5-methyl-7-(2,2,2-trifluoroethyl)-8-(3,3,3-trifluoropropyl)-7,8-dihydropteridin-6(5H)-one] | 10 to 50 | 10 to 50 | < 1 | more active compound | – |
| CN1C(=O)[C@H](CC(F)(F)F)N(CCC(F)(F)F)c2nc(-n3ccnc3)ncc21 [Example 302, (S)-2-(1H-imidazol-1-yl)-5-methyl-7-(2,2,2-trifluoroethyl)-8-(3,3,3-trifluoropropyl)-7,8-dihydropteridin-6(5H)-one] | > 50 | > 50 | 10 to 50 | – | – |
| CN1C(=O)C2CC3CC3N2c2nc(-n3ccnc3-c3ccccc3)ncc21 (stereo not shown) [Example 304, 5-Methyl-2-(2-phenyl-imidazol-1-yl)-7,7a,8,8a-tetrahydro-5H,6aH-1,3,5,8b-tetraaza-cyclopropa[4,5]cyclopenta[1,2-a]naphthalen-6-one] | > 50 | > 50 | 10 to 50 | – | – |
| CC[C@@]12CCCN1c1nc(-c3cn[nH]c3-c3ccccc3)ncc1N(C)C2=O [Example 305, (S)-6a-ethyl-5-methyl-2-(5-phenyl-1H-pyrazol-4-yl)-6a,7,8,9-tetrahydropyrrolo[2,1-h]pteridin-6(5H)-one] | 1 to 10 | 10 to 50 | < 1 | – | – |
| CC[C@@H]1C(=O)N(C)c2cnc(-c3cn[nH]c3-c3cscn3)nc2N1C1CCCC1 [Example 307, (R)-8-cyclopentyl-7-ethyl-5-methyl-2-(5-(thiazol-4-yl)-1H-pyrazol-4-yl)-7,8-dihydropteridin-6(5H)-one] | < 1 | < 1 | < 1 | – | – |
| CC[C@]1(C)C(=O)N(C)c2cnc(-c3cn[nH]c3-c3nccs3)nc2N1CCC(F)(F)F [Example 310, (R)-7-ethyl-5,7-dimethyl-2-(5-(thiazol-2-yl)-1H-pyrazol-4-yl)-8-(3,3,3-trifluoropropyl)-7,8-dihydropteridin-6(5H)-one] | < 1 | > 50 | < 1 | – | – |
